Marks after values point to notes of the source that are not given here.
Molecular target: AgrA (Staphylococcus aureus, UniProt P0A0I7)
Assay: cell-based
Parameters: species or system S. aureus USA300 strain UAMS-1625
Conditions: for Ratio IC50 (in presence of HSA)/IC50 (in absence of HSA): 40 mg/mL HSA vs without HSA; for Ratio (cells marked *): calculated based on activity in presence of 50% of human serum
[1] = LB medium supplemented with 40 mg/mL human serum albumin
[2] = IC50 at 40 mg/mL HSA, LB medium supplemented with 40 mg/mL human serum albumin
[3] = IC50 without HSA, LB medium, without HSA
[4] = concentration inhibiting the expression of lacZ, in the absence of HSA or HS
[5] = IC50 at 40 mg/mL HSA (cells marked *), marked *: activity in presence of 50% of human serum, not determined in 40 mg/mL HSA

AgrA, sequence (P0A0I7 whole entry): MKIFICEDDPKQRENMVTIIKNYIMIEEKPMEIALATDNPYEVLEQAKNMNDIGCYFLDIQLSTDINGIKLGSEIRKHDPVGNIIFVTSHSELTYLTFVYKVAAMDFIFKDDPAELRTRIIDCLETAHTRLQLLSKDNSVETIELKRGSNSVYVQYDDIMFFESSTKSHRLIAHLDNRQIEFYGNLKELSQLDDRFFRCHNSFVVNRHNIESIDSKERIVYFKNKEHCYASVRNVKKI

Compound | Ratio IC50 (in presence of HSA)/IC50 (in absence of HSA) | IC50 at 40 mg/mL HSA [1] | IC50 without HSA (LB medium, without HSA) | IC50 [2] [µM] | IC50 [3] [µM] | IC50 [4] [µM] | activity in the presence of HSA (or HS), inactive at highest concentration tested (in the presence of HSA (or HS)) [µg/mL] | IC50 [5] [µM] | Ratio (cells marked *)
3-(2,4-dimethylbenzenesulfonyl)-8-(4-methanesulfonylpiperazin-1-yl)-4H,5H-[1,2,3]triazolo[1,5-a]quinazolin-5-one [Compound 61] | ++ (ratio ≤ 125) | ++ (10 μg/mL < IC50 ≤ 50 μg/mL) | +++ (IC50 ≤ 1 μg/mL) | – | – | – | – | – | –
3-(2,4-dimethylbenzenesulfonyl)-8-(piperazin-1-yl)-4H,5H-[1,2,3]triazolo[1,5-a]quinazolin-5-one [Compound 23] | +++ (ratio ≤ 25) | ++ (10 μg/mL < IC50 ≤ 50 μg/mL) | +++ (IC50 ≤ 1 μg/mL) | – | – | – | – | – | –
3-(2,4-dimethylbenzenesulfonyl)-8-{9-methyl-2,9-diazaspiro[5.5]undecan-2-yl}-1H,5H-[1,2,3]triazolo[1,5-a]quinazolin-5-one [Compound 5] | +++ (ratio ≤ 25) | ++ (10 μg/mL < IC50 ≤ 50 μg/mL) | +++ (IC50 ≤ 1 μg/mL) | – | – | – | – | – | –
4-[3-(2,4-dimethylbenzenesulfonyl)-5-oxo-4H,5H-[1,2,3]triazolo[1,5-a]quinazolin-8-yl]piperazine-1-sulfonamide [Compound 62] | ++ (ratio ≤ 125) | ++ (10 μg/mL < IC50 ≤ 50 μg/mL) | +++ (IC50 ≤ 1 μg/mL) | – | – | – | – | – | –
Cc1ccc(S(=O)(=O)c2nnn3c2[nH]c(=O)c2ccc(N4C[C@H](C)NC[C@H]4C)cc23)c(C)c1 (racemic) [Compound 28, rac-3-(2,4-dimethylbenzenesulfonyl)-8-[(2R,5S)-2,5-dimethylpiperazin-1-yl]-4H,5H-[1,2,3]triazolo[1,5-a]quinazolin-5-one] | +++ (ratio ≤ 25) | – | – | < 21.4 | < 2.14 | – | – | – | –
Cc1ccc(S(=O)(=O)c2nnn3c2[nH]c(=O)c2ccc(N4CCC4)cc23)c(C)c1 [45 (WO 2020/109350), reference compound] | + (ratio > 125) | – | – | > 122 | < 2.44 | < 2.44 | > 128 | – | –
Cc1ccc(S(=O)(=O)c2nnn3c2[nH]c(=O)c2cc(O)ccc23)c(C)c1 [46 (WO 2020/109350), reference compound] | – | – | – | – | < 2.7 | < 2.7 | – | > 135 | +* (ratio > 125)
COCCOc1cc2c(cc1O)c(=O)[nH]c1c(S(=O)(=O)c3ccc(C)cc3C)nnn12 [58 (WO 2020/109350), reference compound] | – | – | – | – | < 2.25 | < 2.25 | – | > 112 | +* (ratio > 125)
Cc1ccc(S(=O)(=O)c2nnn3c2[nH]c(=O)c2cc(O)c(N4CCN(C)CC4)cc23)c(C)c1 [Compound 1, 3-(2,4-dimethylbenzenesulfonyl)-7-hydroxy-8-(4-methylpiperazin-1-yl)-4H,5H-[1,2,3]triazolo[1,5-a]quinazolin-5-one] | +++ (ratio ≤ 25) | – | – | < 21.3 | < 2.13 | – | – | – | –
Cc1ccc(S(=O)(=O)c2nnn3c2[nH]c(=O)c2cc(O)c(N4CC5(CN(C)C5)C4)cc23)c(C)c1 [Compound 2, 3-(2,4-dimethylbenzenesulfonyl)-7-hydroxy-8-{6-methyl-2,6-diazaspiro[3.3]heptan-2-yl}-4H,5H-[1,2,3]triazolo[1,5-a]quinazolin-5-one] | +++ (ratio ≤ 25) | – | – | < 20.8 | < 2.08 | – | – | – | –
Cc1ccc(S(=O)(=O)c2n[nH]n3c2nc(=O)c2ccc(N4CCC5(CCN(C)CC5)C4)cc23)c(C)c1 [Compound 3, 3-(2,4-dimethylbenzenesulfonyl)-8-{8-methyl-2,8-diazaspiro[4.5]decan-2-yl}-1H,5H-[1,2,3]triazolo[1,5-a]quinazolin-5-one] | +++ (ratio ≤ 25) | – | – | < 19.7 | < 1.97 | – | – | – | –
Cc1ccc(S(=O)(=O)c2n[nH]n3c2nc(=O)c2ccc(N4CCC5(CCCN(C)C5)CC4)cc23)c(C)c1 [Compound 4, 3-(2,4-dimethylbenzenesulfonyl)-8-{2-methyl-2,9-diazaspiro[5.5]undecan-9-yl}-1H,5H-[1,2,3]triazolo[1,5-a]quinazolin-5-one] | +++ (ratio ≤ 25) | – | – | 19.2 to 96 | 1.92 to 9.6 | – | – | – | –
Cc1ccc(S(=O)(=O)c2n[nH]n3c2nc(=O)c2ccc(N4CCC5(CCN(C)CC5)CC4)cc23)c(C)c1 [Compound 6, 3-(2,4-dimethylbenzenesulfonyl)-8-{9-methyl-3,9-diazaspiro[5.5]undecan-3-yl}-1H,5H-[1,2,3]triazolo[1,5-a]quinazolin-5-one] | +++ (ratio ≤ 25) | – | – | 19.2 to 96 | 1.92 to 9.6 | – | – | – | –
Cc1ccc(S(=O)(=O)c2nnn3c2[nH]c(=O)c2ccc(N4CCC5(CNCCO5)C4)cc23)c(C)c1 (stereo not shown) [Compound 7, 3-(2,4-dimethylbenzenesulfonyl)-8-{6-oxa-2,9-diazaspiro[4.5]decan-2-yl}-4H,5H-[1,2,3]triazolo[1,5-a]quinazolin-5-one] | +++ (ratio ≤ 25) | – | – | < 20.2 | < 2.02 | – | – | – | –
Cc1ccc(S(=O)(=O)c2nnn3c2[nH]c(=O)c2ccc(N4CCC5(CN(C)CCO5)C4)cc23)c(C)c1 (stereo not shown) [Compound 8, 3-(2,4-dimethylbenzenesulfonyl)-8-{9-methyl-6-oxa-2,9-diazaspiro[4.5]decan-2-yl}-4H,5H-[1,2,3]triazolo[1,5-a]quinazolin-5-one] | +++ (ratio ≤ 25) | – | – | 19.7 to 98.3 | < 1.97 | – | – | – | –
Cc1ccc(S(=O)(=O)c2nnn3c2[nH]c(=O)c2ccc(N4CCOC5(CNC5)C4)cc23)c(C)c1 [Compound 9, 3-(2,4-dimethylbenzenesulfonyl)-8-{5-oxa-2,8-diazaspiro[3.5]nonan-8-yl}-4H,5H-[1,2,3]triazolo[1,5-a]quinazolin-5-one] | +++ (ratio ≤ 25) | – | – | 20.8 to 104 | 2.08 to 10.4 | – | – | – | –
Cc1ccc(S(=O)(=O)c2nnn3c2[nH]c(=O)c2ccc(N4CCOC5(CN(C)C5)C4)cc23)c(C)c1 [Compound 10, 3-(2,4-dimethylbenzenesulfonyl)-8-{2-methyl-5-oxa-2,8-diazaspiro[3.5]nonan-8-yl}-4H,5H-[1,2,3]triazolo[1,5-a]quinazolin-5-one] | +++ (ratio ≤ 25) | – | – | 20.2 to 101 | 2.02 to 10.1 | – | – | – | –
Cc1ccc(S(=O)(=O)c2nnn3c2[nH]c(=O)c2ccc(N4CCC45CN(C)C5)cc23)c(C)c1 [Compound 11, 3-(2,4-dimethylbenzenesulfonyl)-8-{6-methyl-1,6-diazaspiro[3.3]heptan-1-yl}-4H,5H-[1,2,3]triazolo[1,5-a]quinazolin-5-one] | +++ (ratio ≤ 25) | – | – | 21.5 to 108 | 2.15 to 10.8 | – | – | – | –
Cc1ccc(S(=O)(=O)c2nnn3c2[nH]c(=O)c2ccc(N4CC5(CCN5C)C4)cc23)c(C)c1 [Compound 12, 3-(2,4-dimethylbenzenesulfonyl)-8-{1-methyl-1,6-diazaspiro[3.3]heptan-6-yl}-4H,5H-[1,2,3]triazolo[1,5-a]quinazolin-5-one] | +++ (ratio ≤ 25) | – | – | 21.5 to 108 | < 2.15 | – | – | – | –
Cc1ccc(S(=O)(=O)c2nnn3c2[nH]c(=O)c2ccc(N4CC5(COC5)C4)cc23)c(C)c1 [Compound 13, 3-(2,4-dimethylbenzenesulfonyl)-8-{2-oxa-6-azaspiro[3.3]heptan-6-yl}-4H,5H-[1,2,3]triazolo[1,5-a]quinazolin-5-one] | ++ (ratio ≤ 125) | – | – | 22.1 to 111 | < 2.21 | – | – | – | –
Cc1ccc(S(=O)(=O)c2nnn3c2[nH]c(=O)c2ccc(N4CC5(CN(C)C5)C4)cc23)c(C)c1 [Compound 14, 3-(2,4-dimethylbenzenesulfonyl)-8-{6-methyl-2,6-diazaspiro[3.3]heptan-2-yl}-4H,5H-[1,2,3]triazolo[1,5-a]quinazolin-5-one] | +++ (ratio ≤ 25) | – | – | 21.5 to 108 | 2.15 to 10.8 | – | – | – | –
Cc1ccc(S(=O)(=O)c2n[nH]n3c2nc(=O)c2ccc(N4CCC5(CC4)CNCCO5)cc23)c(C)c1 [Compound 15, 3-(2,4-dimethylbenzenesulfonyl)-8-{1-oxa-4,9-diazaspiro[5.5]undecan-9-yl}-1H,5H-[1,2,3]triazolo[1,5-a]quinazolin-5-one] | +++ (ratio ≤ 25) | – | – | 19.7 to 98.3 | < 1.97 | – | – | – | –
Cc1ccc(S(=O)(=O)c2n[nH]n3c2nc(=O)c2ccc(N4CCC5(CC4)CN(C)CCO5)cc23)c(C)c1 [Compound 16, 3-(2,4-dimethylbenzenesulfonyl)-8-{4-methyl-1-oxa-4,9-diazaspiro[5.5]undecan-9-yl}-1H,5H-[1,2,3]triazolo[1,5-a]quinazolin-5-one] | ++ (ratio ≤ 125) | – | – | 19.1 to 95.7 | < 1.91 | – | – | – | –
Cc1ccc(S(=O)(=O)c2n[nH]n3c2nc(=O)c2ccc(N4CCOC5(CCNCC5)C4)cc23)c(C)c1 [Compound 17, 3-(2,4-dimethylbenzenesulfonyl)-8-{1-oxa-4,9-diazaspiro[5.5]undecan-4-yl}-1H,5H-[1,2,3]triazolo[1,5-a]quinazolin-5-one] | +++ (ratio ≤ 25) | – | – | 19.7 to 98.3 | 1.97 to 9.83 | – | – | – | –
Cc1ccc(S(=O)(=O)c2n[nH]n3c2nc(=O)c2ccc(N4CCOC5(CCN(C)CC5)C4)cc23)c(C)c1 [Compound 18, 3-(2,4-dimethylbenzenesulfonyl)-8-{9-methyl-1-oxa-4,9-diazaspiro[5.5]undecan-4-yl}-1H,5H-[1,2,3]triazolo[1,5-a]quinazolin-5-one] | +++ (ratio ≤ 25) | – | – | 19.1 to 95.7 | 1.91 to 9.57 | – | – | – | –
